We go through twelve compounds from paper PMC5503546, “Synthesis, bioactivity, 3D-QSAR studies of novel dibenzofuran derivatives as PTP-MEG2 inhibitors” (Oncotarget, 2017).

One assay deals with Human recombinant CDC25. Put plainly: PTP activity assay (pNPP), CDC25. The assay is classed as biochemical. Conditions: triplicate. The text has this:
(§1) Human recombinant PTP-MEG2, SHP2 and CDC25 were expressed in E. coli and purified by Ni-NTA affinity chromatography in our laboratory. The basic chemical reaction catalyzed by a phosphatase converts a phosphosubstrate into a dephosphorylated product and free phosphate which could be measured as a surrogate for phosphatase activity. pNPP(para-nitrophenyl phosphate) was used as phosphatase substrate which can be hydrolyzed by phosphatase to give para-nitrophenol. Subsequently, para-nitrophenol converts into para-nitrophenolate (pNP) with addition of sodium hydroxide stop solution. pNP is an intense yellow compound and could be measured at 405 nm using a spectrophotometer. To begin with, purified recombinant PTP-MEG2, SHP2 and CDC25 (0.05 μg) in 50 μL buffer with 50 mM citrate (pH 6.0), 0.1 M NaCl, 1 mM EDTA, and 1 mM dithiothreitol (DTT) and test compounds were added to each well of a 96-well plate. Blank was prepared by omitting enzyme and substituting an equivalent volume of buffer. After preincubation for 15 min at room temperature, 50 μL of reaction buffer with 2 mM pNPP was added and incubated at 37°C for 30 min. Then, the reaction was stopped by adding 10 μL 0.2 M sodium hydroxide and chilled on ice quickly. In addition, the amount of pNP was measured by detecting the absorption at 405 nm against blank. Finally, IC50 values were determined by analyzing the data using ORIGINPRO 8 software.

Another assay addresses T1, Human recombinant SHP2 (Homo sapiens, UniProt Q06124).
T1 construct: made in house; host or cells: E. coli
T1 sequence (Q06124 1-593): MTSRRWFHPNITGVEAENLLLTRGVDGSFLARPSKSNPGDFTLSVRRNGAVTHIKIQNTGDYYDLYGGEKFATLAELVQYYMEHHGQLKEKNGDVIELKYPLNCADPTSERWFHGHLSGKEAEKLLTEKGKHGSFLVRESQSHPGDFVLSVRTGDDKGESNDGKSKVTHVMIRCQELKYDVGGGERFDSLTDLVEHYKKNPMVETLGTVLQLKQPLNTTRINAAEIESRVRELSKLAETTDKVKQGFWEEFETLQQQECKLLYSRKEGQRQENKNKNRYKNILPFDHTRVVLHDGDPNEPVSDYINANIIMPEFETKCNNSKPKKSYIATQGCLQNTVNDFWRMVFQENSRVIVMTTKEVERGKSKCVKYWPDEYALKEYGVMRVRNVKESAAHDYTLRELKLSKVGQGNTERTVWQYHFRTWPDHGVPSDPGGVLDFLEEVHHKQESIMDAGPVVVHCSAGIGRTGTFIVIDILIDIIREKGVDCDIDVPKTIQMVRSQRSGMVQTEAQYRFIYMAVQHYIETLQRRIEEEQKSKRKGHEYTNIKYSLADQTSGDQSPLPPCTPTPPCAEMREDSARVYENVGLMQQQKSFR
Description: PTP activity assay (pNPP), SHP2. The assay is classed as biochemical. The following applies: triplicate; read-out: SHP-2 IC50.
Excerpt: as §1

Assay [1] addresses T2, Human recombinant PTP-MEG2 (Homo sapiens, UniProt P43378).
T2 construct: made in house; host or cells: E. coli
T2 sequence (P43378 1-593): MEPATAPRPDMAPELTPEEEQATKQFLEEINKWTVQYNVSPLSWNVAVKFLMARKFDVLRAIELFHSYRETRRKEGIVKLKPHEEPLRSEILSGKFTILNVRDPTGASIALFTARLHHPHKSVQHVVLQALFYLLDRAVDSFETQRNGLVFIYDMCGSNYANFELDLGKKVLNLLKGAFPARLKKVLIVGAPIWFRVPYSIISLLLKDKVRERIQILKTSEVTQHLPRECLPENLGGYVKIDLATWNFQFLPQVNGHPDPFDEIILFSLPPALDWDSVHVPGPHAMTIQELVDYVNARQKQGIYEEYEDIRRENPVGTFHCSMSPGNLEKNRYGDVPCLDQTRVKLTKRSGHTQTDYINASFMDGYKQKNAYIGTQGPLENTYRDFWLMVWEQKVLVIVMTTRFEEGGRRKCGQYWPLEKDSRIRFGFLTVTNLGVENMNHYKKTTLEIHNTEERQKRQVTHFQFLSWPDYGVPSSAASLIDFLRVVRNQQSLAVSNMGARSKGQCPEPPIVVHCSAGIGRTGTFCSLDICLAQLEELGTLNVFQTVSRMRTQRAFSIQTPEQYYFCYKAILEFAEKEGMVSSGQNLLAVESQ
Description: PTP activity assay (pNPP), PTP-MEG2. The assay is classed as biochemical. Conditions: triplicate, mean ± S.E.M.
Excerpt: as §1

Another assay deals with diet-induced obese mice. Conditions: ref [20]; cited from earlier work.

Consider `COc1ccc(COc2cc(C(=O)OCC3CC3)cc3oc4cc(F)c(C(C)C)cc4c23)cc1` [Compound 11b, cyclopropylmethyl7-fluoro-8-isopropyl-1-((4-methoxybenzyl)oxy)dibenzo[b, d]furan-3-carboxylate], for which the IC50 (commonly the point on the concentration scale where inhibition reaches its midpoint) was more than 50 µM with Human recombinant CDC25, more than 50 µM on Human recombinant SHP2 and 1.06 ± 0.1 µM in assay [1].

In the case of `CCCCCCOc1cc(C(=O)OCC2CC2)cc2oc3cc(F)c(C(C)C)cc3c12` [Compound 11a, cyclopropylmethyl7-fluoro-1-(hexyloxy)-8-isopropyldibenzo[b, d]furan-3-carboxylate], the figures for the IC50 (in the assay with Human recombinant CDC25; on Human recombinant SHP2; in assay [1]) were more than 50 µM, more than 50 µM and 2.41 ± 0.17 µM, respectively.

With `CCCCCCOc1cc(C(=O)OCC)cc2oc3cc(F)c(C(C)C)cc3c12` [Compound 10b, ethyl 7-fluoro-1-(hexyloxy)-8-isopropyldibenzo[b, d]furan-3-carboxylate], the values for the IC50 (in the assay with Human recombinant CDC25; on Human recombinant SHP2; in assay [1]) were more than 50 µM, more than 50 µM and 1.22 ± 0.11 µM, respectively.

Take `CC(C)c1cc2c(cc1F)oc1cc(C(=O)O)cc(OCC3CC3)c12` [Compound 11e, 1-(cyclopropylmethoxy)-7-fluoro-8-isopropyldibenzo[b, d]furan-3-carboxylic acid]: the IC50 with Human recombinant CDC25 was more than 50 µM; on Human recombinant SHP2, more than 50 µM; in assay [1], 5.35 ± 0.43 µM.

As for `COC(=O)c1cc(O)c2c(c1)oc1cc(F)c(C(C)C)cc12` [Compound 9a, methyl 7-fluoro-1-hydroxy-8-isopropyldibenzo[b, d]furan-3-carboxylate], the IC50 was more than 50 µM with Human recombinant CDC25, more than 50 µM at Human recombinant SHP2 and 5 ± 0.4 µM in assay [1].

Consider `CCCCCCOc1cc(C(=O)OCC2CCCCC2)cc2oc3cc(F)c(C(C)C)cc3c12` [Compound 11c, cyclohexylmethyl7-fluoro-1-(hexyloxy)-8-isopropyldibenzo[b, d]furan-3-carboxylate], for which the IC50 is more than 50 µM in the assay on Human recombinant CDC25, more than 50 µM on Human recombinant SHP2 and 3.16 ± 0.32 µM in assay [1].

As to `CCOC(=O)/C(=C/C#Cc1cc(C(C)C)c(F)cc1OC)CC(=O)O` [compound7], in the assay with diet-induced obese mice, the “effect on insulin signaling, insulin sensitivity and glucose homeostasis” value was “augment insulin signaling and enhance the insulin sensitivity and glucose homeostasis”.

`COc1ccc(COc2cc(C(=O)OCC3CCCCC3)cc3oc4cc(F)c(C(C)C)cc4c23)cc1` [Compound 11d, cyclohexylmethyl7-fluoro-8-isopropyl-1-((4-methoxybenzyl)oxy)dibenzo[b, d]furan-3-carboxylate]: the IC50 in the assay with Human recombinant CDC25 was more than 50 µM; at Human recombinant SHP2 it was more than 50 µM; in assay [1] it was 0.83 ± 0.04 µM.

`CCOC(=O)c1cc(OCC2CCCCC2)c2c(c1)oc1cc(F)c(C(C)C)cc12` [Compound 10c, ethyl 1-(cyclohexylmethoxy)-7-fluoro-8-isopropyldibenzo[b, d]furan-3-carboxylate]: the IC50 in the assay with Human recombinant CDC25 is more than 50 µM; at Human recombinant SHP2 it was more than 50 µM; in assay [1], 1.19 ± 0.08 µM.

Regarding `CCOC(=O)c1cc(OC(C)=O)c2c(c1)oc1cc(F)c(C(C)C)cc12` [Compound 8, ethyl 1-acetoxy-7-fluoro-8-isopropyldibenzo[b, d]furan-3-carboxylate], the IC50 with Human recombinant CDC25 is more than 50 µM; at Human recombinant SHP2, more than 50 µM; in assay [1] it was 3.7 ± 0.22 µM.

In the case of `CCOC(=O)c1cc(OCc2ccc(OC)cc2)c2c(c1)oc1cc(F)c(C(C)C)cc12` [Compound 10d, ethyl7-fluoro-8-isopropyl-1-((4-methoxybenzyl)oxy)dibenzo[b, d]furan-3-carboxylate], the IC50 in the assay with Human recombinant CDC25 is more than 50 µM; on Human recombinant SHP2, more than 50 µM; in assay [1], 3.39 ± 0.34 µM.

Turning to `CCOC(=O)c1cc(OCC2CC2)c2c(c1)oc1cc(F)c(C(C)C)cc12` [Compound 10a, ethyl 1-(cyclopropylmethoxy)-7-fluoro-8-isopropyldibenzo[b, d]furan-3-carboxylate], the IC50 is more than 50 µM in the assay with Human recombinant CDC25, more than 50 µM at Human recombinant SHP2 and 0.32 ± 0.02 µM in assay [1].
